Laboratory results published in patent EP4722207A1, “OXOISOINDOLINYL-SUBSTITUTED TETRAHYDROPYRIMIDINEDIONE DERIVATIVE AND USE THEREOF” (Gluetacs Therapeutics (Shanghai) Co., Ltd., priority 2023, dated 2024).

Assays:
Type in all cases: cell-based
WEE1 = target: T1, WEE1 (Homo sapiens, UniProt P30291+Q96SW2); assay: Western-blot assay, substrate protein degradation in hPBMCs: WEE1; conditions: for WEE1 substrate protein remaining %: compounds at 50 nM and 500 nM, 24 hours; for substrate protein remaining % WEE1: 24 hours of compound treatment, 50 nM and 500 nM
T1 construct: effects of the compounds of the present disclosure on the expression of target proteins in cells; endogenous in cells; host or cells: human PBMCs (hPBMCs)

IKZF1 = target: T2, IKZF1 (Homo sapiens, UniProt Q13422+Q96SW2); assay: Western-blot assay, substrate protein degradation in hPBMCs: IKZF1; conditions: for IKZF1 substrate protein remaining %: compounds at 50 nM and 500 nM, 24 hours; for substrate protein remaining % IKZF1: 24 hours of compound treatment, 50 nM and 500 nM
T2 construct: effects of the compounds of the present disclosure on the expression of target proteins in cells; endogenous in cells; host or cells: human PBMCs (hPBMCs)

IKZF2 = target: T3, IKZF2 (Homo sapiens, UniProt Q96SW2+Q9UKS7); assay: Western-blot assay, substrate protein degradation in hPBMCs: IKZF2; conditions: for IKZF2 substrate protein remaining %: compounds at 50 nM and 500 nM, 24 hours; for substrate protein remaining % IKZF2: 24 hours of compound treatment, 50 nM and 500 nM
T3 construct: effects of the compounds of the present disclosure on the expression of target proteins in cells; endogenous in cells; host or cells: human PBMCs (hPBMCs)

IKZF3 = target: T4, IKZF3 (Homo sapiens, UniProt Q96SW2+Q9UKT9); assay: Western-blot assay, substrate protein degradation in hPBMCs: IKZF3; conditions: for IKZF3 substrate protein remaining %: compounds at 50 nM and 500 nM, 24 hours; for substrate protein remaining % IKZF3: 24 hours of compound treatment, 50 nM and 500 nM
T4 construct: effects of the compounds of the present disclosure on the expression of target proteins in cells; endogenous in cells; host or cells: human PBMCs (hPBMCs)

CK1α = target: T5, CK1α (Homo sapiens, UniProt P48729+Q96SW2); assay: Western-blot assay, substrate protein degradation in hPBMCs: CK1α; conditions: for CK1α substrate protein remaining %: compounds at 50 nM and 500 nM, 24 hours; for substrate protein remaining % CK1α: 24 hours of compound treatment, 50 nM and 500 nM
T5 construct: effects of the compounds of the present disclosure on the expression of target proteins in cells; endogenous in cells; host or cells: human PBMCs (hPBMCs)

GSPT1 = target: T6, GSPT1 (Homo sapiens, UniProt P15170+Q96SW2); assay: Western-blot assay, substrate protein degradation in hPBMCs: GSPT1; conditions: for GSPT1 substrate protein remaining %: compounds at 50 nM and 500 nM, 24 hours; for substrate protein remaining % GSPT1: 24 hours of compound treatment, 50 nM and 500 nM
T6 construct: effects of the compounds of the present disclosure on the expression of target proteins in cells; endogenous in cells; host or cells: human PBMCs (hPBMCs)
T6 sequence (P15170 whole entry): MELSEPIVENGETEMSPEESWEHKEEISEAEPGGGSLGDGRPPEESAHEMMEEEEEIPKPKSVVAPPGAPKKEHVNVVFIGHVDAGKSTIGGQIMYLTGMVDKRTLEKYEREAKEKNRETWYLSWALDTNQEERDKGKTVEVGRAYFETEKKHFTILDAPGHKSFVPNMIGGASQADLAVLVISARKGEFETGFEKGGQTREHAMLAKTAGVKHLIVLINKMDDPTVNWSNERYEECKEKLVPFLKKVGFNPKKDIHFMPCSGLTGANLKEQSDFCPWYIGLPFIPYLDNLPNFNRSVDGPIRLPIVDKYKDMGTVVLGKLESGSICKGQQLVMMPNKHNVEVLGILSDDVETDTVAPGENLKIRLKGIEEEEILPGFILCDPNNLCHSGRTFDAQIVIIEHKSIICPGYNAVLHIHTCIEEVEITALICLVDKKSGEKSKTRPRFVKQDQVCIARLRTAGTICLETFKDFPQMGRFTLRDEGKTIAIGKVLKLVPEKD
T6 sequence (Q96SW2 whole entry): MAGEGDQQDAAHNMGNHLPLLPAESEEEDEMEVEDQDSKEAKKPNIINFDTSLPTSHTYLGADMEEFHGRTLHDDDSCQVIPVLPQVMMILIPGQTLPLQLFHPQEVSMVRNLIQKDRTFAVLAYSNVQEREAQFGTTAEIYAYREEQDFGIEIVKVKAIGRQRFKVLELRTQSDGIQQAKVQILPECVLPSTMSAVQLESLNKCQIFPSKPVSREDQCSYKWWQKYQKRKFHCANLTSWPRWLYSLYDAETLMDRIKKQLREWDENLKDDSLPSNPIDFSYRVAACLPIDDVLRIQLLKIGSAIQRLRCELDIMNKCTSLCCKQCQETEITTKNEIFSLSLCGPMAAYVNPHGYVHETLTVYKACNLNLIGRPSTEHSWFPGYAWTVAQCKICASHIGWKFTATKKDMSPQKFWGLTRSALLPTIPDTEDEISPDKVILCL
T6 sequence (Q16531 whole entry partner): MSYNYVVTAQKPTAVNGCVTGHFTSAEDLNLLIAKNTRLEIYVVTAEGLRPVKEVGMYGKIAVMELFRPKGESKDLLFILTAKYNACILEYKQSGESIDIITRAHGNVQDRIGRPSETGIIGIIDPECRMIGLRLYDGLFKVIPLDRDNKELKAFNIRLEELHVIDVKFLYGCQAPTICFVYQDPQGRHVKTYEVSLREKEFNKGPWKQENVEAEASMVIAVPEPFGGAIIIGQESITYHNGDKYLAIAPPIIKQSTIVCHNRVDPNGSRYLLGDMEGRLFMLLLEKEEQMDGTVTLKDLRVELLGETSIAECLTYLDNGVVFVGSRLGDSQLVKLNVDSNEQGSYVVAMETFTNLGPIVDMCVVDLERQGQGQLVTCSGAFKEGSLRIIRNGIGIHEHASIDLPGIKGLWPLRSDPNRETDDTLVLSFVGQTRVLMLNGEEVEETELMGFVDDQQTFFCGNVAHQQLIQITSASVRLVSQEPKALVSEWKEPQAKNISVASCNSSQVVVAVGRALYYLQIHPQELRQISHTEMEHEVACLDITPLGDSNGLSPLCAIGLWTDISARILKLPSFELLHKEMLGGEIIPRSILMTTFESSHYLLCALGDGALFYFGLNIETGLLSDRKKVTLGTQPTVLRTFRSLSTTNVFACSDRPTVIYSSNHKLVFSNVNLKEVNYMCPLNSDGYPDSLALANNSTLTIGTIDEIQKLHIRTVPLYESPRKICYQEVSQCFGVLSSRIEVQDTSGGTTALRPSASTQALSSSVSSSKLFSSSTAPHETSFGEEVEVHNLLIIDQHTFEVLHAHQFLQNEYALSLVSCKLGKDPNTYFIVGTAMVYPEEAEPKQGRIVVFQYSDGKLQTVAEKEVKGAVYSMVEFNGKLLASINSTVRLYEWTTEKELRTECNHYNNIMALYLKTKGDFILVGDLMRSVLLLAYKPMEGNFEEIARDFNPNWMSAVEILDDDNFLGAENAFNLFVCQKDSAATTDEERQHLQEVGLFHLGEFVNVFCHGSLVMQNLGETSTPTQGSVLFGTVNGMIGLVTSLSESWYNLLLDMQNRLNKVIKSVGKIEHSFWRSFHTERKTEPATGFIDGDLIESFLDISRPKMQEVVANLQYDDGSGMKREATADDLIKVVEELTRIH

T2 sequence (Q13422 whole entry): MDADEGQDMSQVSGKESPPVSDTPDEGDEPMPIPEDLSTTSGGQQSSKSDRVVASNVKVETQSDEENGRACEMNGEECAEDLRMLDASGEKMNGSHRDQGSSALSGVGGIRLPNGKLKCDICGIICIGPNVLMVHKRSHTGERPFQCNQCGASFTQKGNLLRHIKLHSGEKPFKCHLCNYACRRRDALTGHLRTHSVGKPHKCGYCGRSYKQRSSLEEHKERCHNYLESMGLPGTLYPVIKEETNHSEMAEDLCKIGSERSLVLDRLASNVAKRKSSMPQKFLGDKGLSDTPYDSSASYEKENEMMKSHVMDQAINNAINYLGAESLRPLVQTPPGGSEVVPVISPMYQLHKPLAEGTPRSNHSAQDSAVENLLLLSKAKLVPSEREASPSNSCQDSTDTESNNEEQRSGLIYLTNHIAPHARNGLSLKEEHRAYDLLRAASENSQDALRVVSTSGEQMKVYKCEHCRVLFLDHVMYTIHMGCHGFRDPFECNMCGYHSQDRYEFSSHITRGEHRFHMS
T2 sequence (Q96SW2 whole entry): as the sequence (Q96SW2 whole entry) above
T2 sequence (Q16531 whole entry partner): as the sequence (Q16531 whole entry partner) above
T4 sequence (Q9UKT9 whole entry): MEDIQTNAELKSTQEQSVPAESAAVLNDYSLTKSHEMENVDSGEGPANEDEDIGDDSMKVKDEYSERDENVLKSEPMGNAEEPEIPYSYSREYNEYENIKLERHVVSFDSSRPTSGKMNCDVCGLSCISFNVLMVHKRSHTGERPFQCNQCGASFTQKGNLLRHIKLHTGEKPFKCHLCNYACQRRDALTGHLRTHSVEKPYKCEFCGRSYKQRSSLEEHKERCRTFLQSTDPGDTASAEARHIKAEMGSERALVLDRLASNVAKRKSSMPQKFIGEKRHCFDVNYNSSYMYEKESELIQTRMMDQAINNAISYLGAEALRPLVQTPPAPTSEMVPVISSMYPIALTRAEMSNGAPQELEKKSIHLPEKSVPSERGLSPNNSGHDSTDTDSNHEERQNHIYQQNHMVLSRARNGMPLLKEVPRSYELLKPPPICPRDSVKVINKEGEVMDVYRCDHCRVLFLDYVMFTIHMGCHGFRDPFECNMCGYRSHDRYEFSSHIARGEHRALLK
T4 sequence (Q96SW2 whole entry): as the sequence (Q96SW2 whole entry) above
T4 sequence (Q16531 whole entry partner): as the sequence (Q16531 whole entry partner) above
T1 sequence (P30291 whole entry): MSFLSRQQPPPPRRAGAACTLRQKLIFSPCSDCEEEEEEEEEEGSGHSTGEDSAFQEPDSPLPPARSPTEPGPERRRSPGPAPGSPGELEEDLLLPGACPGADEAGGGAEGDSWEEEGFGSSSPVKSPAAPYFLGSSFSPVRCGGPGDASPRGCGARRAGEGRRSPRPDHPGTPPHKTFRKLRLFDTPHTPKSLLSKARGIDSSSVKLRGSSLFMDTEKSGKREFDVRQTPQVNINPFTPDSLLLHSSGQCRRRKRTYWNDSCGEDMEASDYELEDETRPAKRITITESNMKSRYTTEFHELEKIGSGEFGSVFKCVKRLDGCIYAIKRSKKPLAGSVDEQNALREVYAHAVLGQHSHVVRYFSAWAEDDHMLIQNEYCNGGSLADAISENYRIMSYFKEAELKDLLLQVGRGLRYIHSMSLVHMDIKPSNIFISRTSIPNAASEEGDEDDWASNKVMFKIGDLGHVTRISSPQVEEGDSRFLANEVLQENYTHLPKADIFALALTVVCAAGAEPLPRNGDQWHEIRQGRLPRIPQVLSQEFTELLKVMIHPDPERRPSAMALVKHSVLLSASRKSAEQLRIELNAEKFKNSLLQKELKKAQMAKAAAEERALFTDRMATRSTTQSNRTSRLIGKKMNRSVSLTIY
T1 sequence (Q96SW2 whole entry): as the sequence (Q96SW2 whole entry) above
T1 sequence (Q16531 whole entry partner): as the sequence (Q16531 whole entry partner) above
T5 sequence (P48729 whole entry): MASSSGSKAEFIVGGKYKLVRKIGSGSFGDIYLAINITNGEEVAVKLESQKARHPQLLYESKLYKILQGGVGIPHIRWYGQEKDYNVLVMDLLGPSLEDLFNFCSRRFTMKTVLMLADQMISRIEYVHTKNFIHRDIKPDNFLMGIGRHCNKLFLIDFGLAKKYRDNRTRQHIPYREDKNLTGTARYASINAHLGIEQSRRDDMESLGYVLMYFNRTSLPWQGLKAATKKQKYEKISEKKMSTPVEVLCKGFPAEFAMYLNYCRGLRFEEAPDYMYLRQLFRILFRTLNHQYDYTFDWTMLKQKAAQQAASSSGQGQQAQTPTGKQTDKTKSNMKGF
T5 sequence (Q96SW2 whole entry): as the sequence (Q96SW2 whole entry) above
T5 sequence (Q16531 whole entry partner): as the sequence (Q16531 whole entry partner) above

| Structure (SMILES) | WEE1 substrate protein remaining % (WEE1) | IKZF1 substrate protein remaining % (IKZF1) | IKZF2 substrate protein remaining % (IKZF2) | IKZF3 substrate protein remaining % (IKZF3) | CK1α substrate protein remaining % (CK1α) | GSPT1 substrate protein remaining % (GSPT1) | substrate protein remaining % WEE1 (WEE1) | substrate protein remaining % IKZF1 (IKZF1) | substrate protein remaining % IKZF2 (IKZF2) | substrate protein remaining % IKZF3 (IKZF3) | substrate protein remaining % CK1α (CK1α) | substrate protein remaining % GSPT1 (GSPT1) |
| --- | --- | --- | --- | --- | --- | --- | --- | --- | --- | --- | --- | --- |
| O=C1CCN(N2Cc3cc(CN4CCN(c5nccc(Cl)c5F)CC4)ccc3C2=O)C(=O)N1 [GT-05358, 1-(5-((4-(4-chloro-3-fluoropyridin-2-yl)piperazin-1-yl)methyl)-1-oxoisoindolin-2-yl)dihydropyrimidine-2,4(1H,3H)-dione] | B ("B" is defined as 80%< substrate protein remaining %≤ 100%) | B ("B" is defined as 80%< substrate protein remaining %≤ 100%) | B ("B" is defined as 80%< substrate protein remaining %≤ 100%) | B ("B" is defined as 80%< substrate protein remaining %≤ 100%) | B ("B" is defined as 80%< substrate protein remaining %≤ 100%) | A ("A" is defined as 0% ≤ substrate protein remaining % ≤ 80%) |  |  |  |  |  |  |
| O=C1CCN(N2Cc3cc(CN4CCN(c5nccc(I)c5F)CC4)ccc3C2=O)C(=O)N1 [GT-05406, 1-(5-((4-(3-fluoro-4-iodopyridin-2-yl)piperazin-1-yl)methyl)-1-oxoisoindolin-2-yl)dihydropyrimidine-2,4(1H,3H)-dione] | A ("A" is defined as 0% ≤ substrate protein remaining % ≤ 80%) | B ("B" is defined as 80%< substrate protein remaining %≤ 100%) | A ("A" is defined as 0% ≤ substrate protein remaining % ≤ 80%) | B ("B" is defined as 80%< substrate protein remaining %≤ 100%) | B ("B" is defined as 80%< substrate protein remaining %≤ 100%) | A ("A" is defined as 0% ≤ substrate protein remaining % ≤ 80%) | B (80%< substrate protein remaining %≤ 100%) | B (80%< substrate protein remaining %≤ 100%) | B (80%< substrate protein remaining %≤ 100%) | B (80%< substrate protein remaining %≤ 100%) | B (80%< substrate protein remaining %≤ 100%) | A (0% ≤ substrate protein remaining % ≤ 80%) |
| O=C1CCN(N2Cc3cc(CN4CCN(c5nccc(Cl)c5Br)CC4)ccc3C2=O)C(=O)N1 [GT-05432, 1-(5-((4-(3-bromo-4-chloropyridin-2-yl)piperazin-1-yl)methyl)-1-oxoisoindolin-2-yl)dihydropyrimidine-2,4(1H,3H)-dione] | A ("A" is defined as 0% ≤ substrate protein remaining % ≤ 80%) | B ("B" is defined as 80%< substrate protein remaining %≤ 100%) | B ("B" is defined as 80%< substrate protein remaining %≤ 100%) | B ("B" is defined as 80%< substrate protein remaining %≤ 100%) | B ("B" is defined as 80%< substrate protein remaining %≤ 100%) | B ("B" is defined as 80%< substrate protein remaining %≤ 100%) | A (0% ≤ substrate protein remaining % ≤ 80%) | B (80%< substrate protein remaining %≤ 100%) | B (80%< substrate protein remaining %≤ 100%) | B (80%< substrate protein remaining %≤ 100%) | B (80%< substrate protein remaining %≤ 100%) | A (0% ≤ substrate protein remaining % ≤ 80%) |
| O=C1CCN(N2Cc3cc(CN4CCN(c5ncc(C(F)(F)F)cc5Cl)CC4)ccc3C2=O)C(=O)N1 [GT-05433, 1-(5-((4-(3-chloro-5-(trifluoromethyl)pyridin-2-yl)piperazin-1-yl)methyl)-1-oxoisoindolin-2-yl)dihydropyrimidine-2,4(1H,3H)-dione] | A ("A" is defined as 0% ≤ substrate protein remaining % ≤ 80%) | B ("B" is defined as 80%< substrate protein remaining %≤ 100%) | B ("B" is defined as 80%< substrate protein remaining %≤ 100%) | B ("B" is defined as 80%< substrate protein remaining %≤ 100%) | B ("B" is defined as 80%< substrate protein remaining %≤ 100%) | A ("A" is defined as 0% ≤ substrate protein remaining % ≤ 80%) | A (0% ≤ substrate protein remaining % ≤ 80%) | B (80%< substrate protein remaining %≤ 100%) | A (0% ≤ substrate protein remaining % ≤ 80%) | B (80%< substrate protein remaining %≤ 100%) | B (80%< substrate protein remaining %≤ 100%) | A (0% ≤ substrate protein remaining % ≤ 80%) |
| O=C1CCN(N2Cc3cc(CN4CCN(c5cccnc5)CC4)ccc3C2=O)C(=O)N1 [GT-05434, 1-(1-oxo-5-((4-(pyridin-3-yl)piperazin-1-yl)methyl)isoindolin-2-yl)dihydropyrimidine-2,4(1H,3H)-dione] | A ("A" is defined as 0% ≤ substrate protein remaining % ≤ 80%) | B ("B" is defined as 80%< substrate protein remaining %≤ 100%) | B ("B" is defined as 80%< substrate protein remaining %≤ 100%) | B ("B" is defined as 80%< substrate protein remaining %≤ 100%) | B ("B" is defined as 80%< substrate protein remaining %≤ 100%) | A ("A" is defined as 0% ≤ substrate protein remaining % ≤ 80%) | A (0% ≤ substrate protein remaining % ≤ 80%) | B (80%< substrate protein remaining %≤ 100%) | A (0% ≤ substrate protein remaining % ≤ 80%) | B (80%< substrate protein remaining %≤ 100%) | A (0% ≤ substrate protein remaining % ≤ 80%) | A (0% ≤ substrate protein remaining % ≤ 80%) |
| O=C1CCN(N2Cc3cc(CN4CCN(c5ccc(Cl)nc5)CC4)ccc3C2=O)C(=O)N1 [GT-05435, 1-(5-((4-(6-chloropyridin-3-yl)piperazin-1-yl)methyl)-1-oxoisoindolin-2-yl)dihydropyrimidine-2,4(1H,3H)-dione] | A ("A" is defined as 0% ≤ substrate protein remaining % ≤ 80%) | B ("B" is defined as 80%< substrate protein remaining %≤ 100%) | B ("B" is defined as 80%< substrate protein remaining %≤ 100%) | B ("B" is defined as 80%< substrate protein remaining %≤ 100%) | B ("B" is defined as 80%< substrate protein remaining %≤ 100%) | A ("A" is defined as 0% ≤ substrate protein remaining % ≤ 80%) |  |  |  |  |  |  |
